Source: US12570682B2, “Method for increasing bulk density of nicotinamide mononucleotide crystal and crystal thereof” (BONTAC BIO-ENGINEERING (SHENZHEN) CO., LTD, priority 2021, dated 2026)
Like-named read-outs stand apart in the source and are kept apart here.

Experiments:
[1] = loose bulk density measurement of nicotinamide mononucleotide crystals (sieve, weigh, graduated cylinder); format: physicochemical
Procedure: Bulk densities mentioned below are all loose bulk densities, and specific values are measured by the following method: taking an object to be tested, sieving the object (1.00 mm No. 18), accurately weighing the object, slowly pouring the object into a glass graduated cylinder, scraping the top, recording an apparent volume, and calculating the bulk density; and taking 3 same samples for parallel measurement, recording the readings, and using an average value as a measurement result.

[2] = prior-art crystals (CN108697722A; CN11269505A embodiment data); cited from earlier work
[3] = CN11269505A embodiment data; cited from earlier work
[4] = loose bulk density, average of 3 parallel samples

NC(=O)c1ccc[n+]([C@@H]2O[C@H](COP(=O)([O-])O)[C@@H](O)[C@H]2O)c1 [Comparative Example 1, nicotinamide mononucleotide]
Bulk density [1, 4]: 0.23 g/mL

NC(=O)c1ccc[n+]([C@@H]2O[C@H](COP(=O)([O-])O)[C@@H](O)[C@H]2O)c1 [Comparative Example 2, nicotinamide mononucleotide]
Bulk density [1, 4]: 0.20 g/mL

NC(=O)c1ccc[n+]([C@@H]2O[C@H](COP(=O)([O-])O)[C@@H](O)[C@H]2O)c1 [Comparative Example 3, nicotinamide mononucleotide]
Bulk density [1, 4]: 0.40 g/mL

NC(=O)c1ccc[n+]([C@@H]2O[C@H](COP(=O)([O-])O)[C@@H](O)[C@H]2O)c1 [Comparative Example 4, nicotinamide mononucleotide]
Bulk density [1, 4]: 0.56 g/mL

NC(=O)c1ccc[n+]([C@@H]2O[C@H](COP(=O)([O-])O)[C@@H](O)[C@H]2O)c1 [Example 1, nicotinamide mononucleotide]
Bulk density ([1]; water content of semi-solid 1%, pH 3.5, ethanol, cooling 10° C./h to 10° C.): 1.05 g/mL | Bulk density ([1]; water content of semi-solid 5%, pH 3.5, ethanol, cooling 10° C./h to 10° C.): 1.03 g/mL | Bulk density ([1]; water content of semi-solid 10%, pH 3.5, ethanol, cooling 10° C./h to 10° C.): 0.89 g/mL | Bulk density ([1]; water content of semi-solid 15%, pH 3.5, ethanol, cooling 10° C./h to 10° C.): 0.77 g/mL | Bulk density ([1]; water content of semi-solid 20%, pH 3.5, ethanol, cooling 10° C./h to 10° C.): 0.67 g/mL | Bulk density ([1]; water content of semi-solid 25%, pH 3.5, ethanol, cooling 10° C./h to 10° C.): 0.56 g/mL | Bulk density ([1]; water content of semi-solid 35%, pH 3.5, ethanol, cooling 10° C./h to 10° C.): 0.44 g/mL | Bulk density ([1]; water content of semi-solid 50%, pH 3.5, ethanol, cooling 10° C./h to 10° C.): 0.33 g/mL | Bulk density ([1]; water content of semi-solid 75%, pH 3.5, ethanol, cooling 10° C./h to 10° C.): 0.26 g/mL

NC(=O)c1ccc[n+]([C@@H]2O[C@H](COP(=O)([O-])O)[C@@H](O)[C@H]2O)c1 [Example 2, nicotinamide mononucleotide]
Bulk density ([1]; cooling rate 1, crystallization end temperature 10, water content 10%, pH 3.5): 0.93 g/mL | Bulk density ([1]; cooling rate 1, crystallization end temperature 18, water content 10%, pH 3.5): 0.88 g/mL | Bulk density ([1]; cooling rate 3, crystallization end temperature 10, water content 10%, pH 3.5): 0.93 g/mL | Bulk density ([1]; cooling rate 5, crystallization end temperature 5, water content 10%, pH 3.5): 0.92 g/mL | Bulk density ([1]; cooling rate 5, crystallization end temperature 10, water content 10%, pH 3.5): 0.92 g/mL | Bulk density ([1]; cooling rate 5, crystallization end temperature 18, water content 10%, pH 3.5): 0.88 g/mL | Bulk density ([1]; cooling rate 10, crystallization end temperature 5, water content 10%, pH 3.5): 0.88 g/mL | Bulk density ([1]; cooling rate 10, crystallization end temperature 10, water content 10%, pH 3.5): 0.89 g/mL | Bulk density ([1]; cooling rate 10, crystallization end temperature 18, water content 10%, pH 3.5): 0.84 g/mL | Bulk density ([1]; cooling rate 15, crystallization end temperature 8, water content 10%, pH 3.5): 0.84 g/mL | Bulk density ([1]; cooling rate 15, crystallization end temperature 10, water content 10%, pH 3.5): 0.84 g/mL | Bulk density ([1]; cooling rate 15, crystallization end temperature 18, water content 10%, pH 3.5): 0.82 g/mL | Bulk density ([1]; cooling rate 15, crystallization end temperature 25, water content 10%, pH 3.5): 0.34 g/mL | Bulk density ([1]; cooling rate 20, crystallization end temperature 10, water content 10%, pH 3.5): 0.35 g/mL

NC(=O)c1ccc[n+]([C@@H]2O[C@H](COP(=O)([O-])O)[C@@H](O)[C@H]2O)c1 [Example 3, nicotinamide mononucleotide]
Bulk density ([1]; pH value of aqueous solution of NMN 3.5, water content 10%, cooling 10° C./h to 10° C.): 0.89 g/mL | Bulk density ([1]; pH value of aqueous solution of NMN 4.5, water content 10%, cooling 10° C./h to 10° C.): 1.08 g/mL | Bulk density ([1]; pH value of aqueous solution of NMN 5.0, water content 10%, cooling 10° C./h to 10° C.): 1.09 g/mL | Bulk density ([1]; pH value of aqueous solution of NMN 5.5, water content 10%, cooling 10° C./h to 10° C.): 1.09 g/mL | Bulk density ([1]; pH value of aqueous solution of NMN 6.0, water content 10%, cooling 10° C./h to 10° C.): 1.07 g/mL | Bulk density ([1]; pH value of aqueous solution of NMN 6.5, water content 10%, cooling 10° C./h to 10° C.): 1.08 g/mL | Bulk density ([1]; pH value of aqueous solution of NMN 7.0, water content 10%, cooling 10° C./h to 10° C.): 0.81 g/mL

NC(=O)c1ccc[n+]([C@@H]2O[C@H](COP(=O)([O-])O)[C@@H](O)[C@H]2O)c1 [Example 4, nicotinamide mononucleotide]
Bulk density [1, 4]: 1.02 g/mL

NC(=O)c1ccc[n+]([C@@H]2O[C@H](COP(=O)([O-])O)[C@@H](O)[C@H]2O)c1 [Example 5, nicotinamide mononucleotide]
Bulk density [1, 4]: 1.17 g/mL

NC(=O)c1ccc[n+]([C@@H]2O[C@H](COP(=O)([O-])O)[C@@H](O)[C@H]2O)c1 [Example 6, nicotinamide mononucleotide]
Bulk density [1, 4]: 1.21 g/mL

NC(=O)c1ccc[n+]([C@@H]2O[C@H](COP(=O)([O-])O)[C@@H](O)[C@H]2O)c1 [Example 7, nicotinamide mononucleotide]
Bulk density [1, 4]: 0.95 g/mL

NC(=O)c1ccc[n+]([C@@H]2O[C@H](COP(=O)([O-])O)[C@@H](O)[C@H]2O)c1 [Example 8, nicotinamide mononucleotide]
Bulk density [1, 4]: 1.24 g/mL

NC(=O)c1ccc[n+]([C@@H]2O[C@H](COP(=O)([O-])O)[C@@H](O)[C@H]2O)c1 [form 1, β-nicotinamide mononucleotide, reference compound]
Bulk density [2]: about 0.2 g/ml | Bulk density ([1]; loose bulk density, average of 3 parallel samples, listed as nicotinamide mononucleotide anhydrous crystal): 0.20 g/mL

NC(=O)c1ccc[n+]([C@@H]2O[C@H](COP(=O)([O-])O)[C@@H](O)[C@H]2O)c1 [form 2, β-nicotinamide mononucleotide]
Bulk density [2]: about 0.2 g/ml

NC(=O)c1ccc[n+]([C@@H]2O[C@H](COP(=O)([O-])O)[C@@H](O)[C@H]2O)c1 [high-density NMN, nicotinamide mononucleotide]
Bulk density [2]: 0.52 g/mL | tap density [3]: 0.71 g/mL
